Experimental data taken from patent US6566508B2, “Fluorogenic compounds and uses therefor” (3M Innovative Properties Company, priority 2000, dated 2003).
Like-named read-outs stand apart in the source and are kept apart here. Each block holds one molecule with its values, some of them ahead of it.

Assays:
[1] = Fluorescence excitation and emission spectra; conditions: for λem (nm) / λex (nm): anion of hydrolysis product
Description: Fluorescence measurements were made using a SPEX Fluorolog™ Series spectrofluorimeter (SPEX Industries, Inc., Edison, N.J.).
By using an excitation source filter centered in this spectral window and an emission source filter centered between 480 nm and 600 nm, the formation of TU anion can be measured as a product of the enzymatic cleavage of β-TUGlc without interference from β-TUGlc fluorescence.

[2] = pKa determination from fluorescence emission as a function of pH
Description: Fifty microliters of this solution were then diluted to 4.00 mL in a series of 50 mM sodium phosphate buffer solutions, each having a different pH, corresponding to the traces of FIG. 7a, as shown in Table 1. The final concentration of TU was 3.08×10^−4 M.

[3] = tested on: B. stearothermophilus spores; assay: Bacterial hydrolysis of α-TUGlc; format: cell-based, Bacillus stearothermophilus; conditions: spores 1×10^8 cells/mL diluted in growth media, 56° C., 10 μL of 246 μM substrate
Description: 100 μL of B. stearothermophilus spores (initial cone. 1×10^8 cells/mL) was added to 890 μL of growth media and the mixture was incubated at 56° C. for 7 minutes. […] This increase in fluorescence indicates enzymatic cleavage of the substrate. However, because the spores have both β- and α-glucosidase activity, the stereochemistry of the substrate can not be judged.

[4] = tested on: B. stearothermophilus α-glucosidase; assay: Enzymatic hydrolysis of α-TUGlc; format: biochemical; conditions: 60° C., growth media, 10 μL of 246 μM substrate, ex 450 nm, em 502 nm
Description: Commercially prepared B. stearothermophilus α-glucosidase (Sigma Chemical Company, St. Louis, Mo.) was used as 100 units per mL (1 unit produces 1 μmole of product per minute). 10 μL of this solution was added to […] of growth media to simulate the actual environment of the bacterial spores. This enzyme and media mixture was then incubated for 7 minutes at 60° C., at which time 10 μL of 246 μM α-TUGlc (prepared as described in Example 4) was added. The reaction was monitored on the SPEX Fluorolog™ spectrofluorimeter by exciting at 450 nm with emission at 502 nm. […] Variation in fluorescence may be due to variation in activity of the bacterial enzyme per mL of mixture. The assays of examples 7 and 8 confirmed the presence of the α-glucoside derivative.

E. coli P18 cells = assay: Escherichia coli detection with β-TUGal in growth media (microwell fluorescence); format: cell-based
Description: E. coli is known to secrete extracellular galactosidase. In a selective growth media, E. coli can be detected based on development of this enzyme activity. Varying concentrations of 3-(2-thienyl) umbelliferyl-β-D-galactoside (β-TUGal) indicator were assayed against three known concentrations of E. coli P 18 cells: ca 10^3, 10^2, and 10 cells/mL. Viable cell counts were determined using Petrifilm (3M, St. Paul, Minn.). Adjusting for the dilutions used in the fluorescence detection experiments, cell counts were approximately 56, 5.6, and 0.56 cells per well. A fresh overnight culture of E. coli P18 was prepared and grown in tryptic soy broth (TSB, Sigma Chemical Co., St. Louis, Mo.). Ten μL of this stock culture was diluted into […] of Butterfields phosphate buffer (Hardy Diagnostics, Santa Maria, Calif.) to give a 10,000 fold dilution. Next, 10 mL of this new solution was diluted into 90 mL of phosphate buffer to give an approximate E. coli concentration of 10^3 cells/mL. Two more dilutions in this same manner yielded cultures of 10^2 and 10 cells/mL. […] Each of the three lowest dilutions of the E. coli culture were counted on Petrifilm by plating 1 mL of each and growing overnight at 37° C.

[5] = molecular target: β-galactosidase from E. coli (Escherichia coli, UniProt P00722); conditions: pH 7.6, 37° C., excitation 450 nm, 1, 10 and 20 μM substrate
Chain of β-galactosidase from E. coli (P00722 2-1024): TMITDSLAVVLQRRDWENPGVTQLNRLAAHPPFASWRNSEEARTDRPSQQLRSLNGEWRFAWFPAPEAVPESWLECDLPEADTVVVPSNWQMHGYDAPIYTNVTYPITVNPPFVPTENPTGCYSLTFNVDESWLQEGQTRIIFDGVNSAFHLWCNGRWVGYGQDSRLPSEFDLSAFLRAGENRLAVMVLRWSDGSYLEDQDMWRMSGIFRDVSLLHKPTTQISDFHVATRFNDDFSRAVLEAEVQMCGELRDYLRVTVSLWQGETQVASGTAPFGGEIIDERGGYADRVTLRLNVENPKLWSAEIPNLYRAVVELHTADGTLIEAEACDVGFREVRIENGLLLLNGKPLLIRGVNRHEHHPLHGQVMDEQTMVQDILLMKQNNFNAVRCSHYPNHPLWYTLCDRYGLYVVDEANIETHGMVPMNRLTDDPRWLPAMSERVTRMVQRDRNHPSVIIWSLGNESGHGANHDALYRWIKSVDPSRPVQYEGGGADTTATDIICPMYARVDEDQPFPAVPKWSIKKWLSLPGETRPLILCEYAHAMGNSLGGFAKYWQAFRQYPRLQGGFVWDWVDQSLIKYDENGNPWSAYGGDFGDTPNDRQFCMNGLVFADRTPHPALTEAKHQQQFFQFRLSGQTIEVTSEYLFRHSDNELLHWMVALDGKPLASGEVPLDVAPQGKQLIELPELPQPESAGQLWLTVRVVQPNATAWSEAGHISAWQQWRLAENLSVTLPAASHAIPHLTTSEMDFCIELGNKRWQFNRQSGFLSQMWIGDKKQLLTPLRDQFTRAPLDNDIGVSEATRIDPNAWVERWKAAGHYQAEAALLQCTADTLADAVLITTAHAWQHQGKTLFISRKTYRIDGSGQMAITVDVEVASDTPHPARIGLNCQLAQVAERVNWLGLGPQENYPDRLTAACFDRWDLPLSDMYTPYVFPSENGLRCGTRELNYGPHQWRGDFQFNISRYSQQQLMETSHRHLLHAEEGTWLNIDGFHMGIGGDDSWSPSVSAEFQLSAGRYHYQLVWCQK
Description: β-Galactosidase activity was continuously assayed at pH 7.6 in a fluorometer using front face detection.
Samples were excited at 450 nm and emission was monitored at 502 nm.
Assay solutions were prepared as follows: a 100 mM sodium phosphate solution, pH 7.6, a 30 mM MgCl2 solution, a solution of β-TUGal (3.08×10^−2 M, Example 1) in N,N-dimethyl formamide (DMF), and a solution of β-galactosidase (1.0 units/μl) from E. coli (Grade VIII, Sigma Chemical Co., St. Louis, Mo.) reconstituted in 100 mM sodium phosphate, pH 7.3.
All reagents were kept on ice until their time of use. From them, two solutions were prepared: the substrate solution and the enzyme solution. The substrate solution was prepared in a sample vial by further dilution of the β-TUGal solution in DMF. The preparations gave final concentrations of 1, 10, and 20 μM β-TUGal. In a separate cuvette, the phosphate buffer was combined with 150 μL MgCl2 solution and the appropriate amount of reconstituted β-galactosidase to make the enzyme solution. This was then incubated for seven minutes at 37° C. Following incubation, the substrate solution was added and the fluorescence was measured by front face detection over a 10-minute period at 37° C.

β-glucosidase [6] = assay: LED-based monitoring of enzymatic cleavage of β-TUGlc; format: biochemical
Description: A 10× objective was used for large detection zones (e.g., solution cuvettes, microwell arrays) and a 40× objective was used for small samples (e.g., 50 μm wide channels in microfluidic chips). […] (Model #04 OAS 016; 0.65 N.A.).
Two stock solutions of β-glucosidase (Sigma Chemical Co., St. Louis, Mo.) were prepared in pH 7.6 phosphate buffered saline (PBS): (a) 1 enzyme unit/20 μL and (b) 1 enzyme unit/400 μL, where one enzyme unit liberates 1 μMole of product per minute when salicin is the substrate. Required amounts of the stock solutions were diluted with 980 μL of PBS to create samples of 0.5, 0.125, 0.0625, 0.025, and 0.0125 units per mL, represented in FIG. 17a by traces 1 through 5, respectively. These samples were incubated for 7 minutes at 37° C., then treated with 5 μL of 24.6 mM β-TUGlc in DMF (Example 1) such that the initial concentration of β-TUGlc was 123 μM.
Fluorescence resulting from cleavage of the substrate was monitored in a thermostatted cuvette at 37 ° C. using the testbed described in Example 9 with a PMT gain setting of 822 Amperes/Watt. Fluorescent response for each enzyme concentration was monitored for three minutes. FIG. 17b is a plot of the initial rates of reaction obtained from the data in FIG. 17a.

[7] = tested on: B. stearothermophilus spores; assay: Bacillus stearothermophilus detection with β-TUGlc; format: cell-based
Description: B. stearothermophilus spores (commercially available as ATCC 7953 or ATCC 8005 from American Type Culture Collection, Rockville, Md.) were diluted in growth media to a concentration of 1.3×10^8 cells per mL. Dilutions to 10^7 […] and 10^6 cells/mL were prepared using 50 mM sodium phosphate, pH 7.6. Aliquots of these solutions were incubated with β-TUGlc (2×10^−6 M) at 56° C. in a fluorimeter and fluorescence was monitored with excitation at 450 nm and emission at 502 nm. […] In a similar manner, spore solutions that had been steam-sterilized for 20 minutes at 121° C. were mixed with the β-TUGlc. […] The growth medium for this Example was prepared by dissolution of trypticase peptone (5 g), phytone peptone (12 g) and L-alanine (17 mg) in 1 liter of water.

β-glucosidase [8] = assay: Hand-held LED probe, cleavage of β-TUGlc; format: biochemical; conditions: 0.125 units β-glucosidase, pH 7.6 PBS, GaN LED
Description: A solution of 100 μL of 1.0 mM β-TUGlc (Example 1) in DMF was combined with 840 μL of 7.6 pH PBS in a 1 mL cuvette, and the volume was adjusted to 990 μL by the addition of […] of 30 mM aq. MgCl. The mixture was irradiated using a GaN LED (λmax=480 nm, Nichia Chemical Industries, Ltd., Anan, J P) mounted in a compact, hand-held probe, and 10 μL of β-glucosidase (0.125 units in pH 7.6 PBS) was added. Within ten seconds, a strong fluorescent signal could be seen in the cuvette.

[9] = Autoclave stability of β-TUGlc; format: physicochemical; conditions: 0.1 g/mL in B. subtilis growth media and pH 7.6 PBS; 20 minutes at 121° C., then 15 minutes at 132° C.
Description: Solutions of 0.1 g/mL of β-TUGlc (Example 1) in B. subtilis growth media and in pH 7.6 phosphate buffered saline (PBS) were heated in an autoclave for 20 minutes at 121° C. Fluorescence spectrum on excitation at 362 nm was obtained. The sample was heated a second time in an autoclave for 15 minutes at 132° C., and the fluorescence spectrum was obtained. […] Therefore, β-TUGlc was sufficiently robust to be used in a sterilization indicator format such as a Attest™ Rapid Readout Biological Indicator (3M Company, St. Paul, Minn.), wherein the fluorogenic enzyme substrate and the biological spore are both exposed to the conditions within the steam sterilizer.

Bacillus subtilis spores = assay: LED-based monitoring of bacterial cleavage of β-TUGlc; format: cell-based
Description: LED 110, having a maximum emission at 475 nm (Model HP HLMP CB15, Hewlett Packard Instruments, Palo Alto, Calif.), was driven in a pulsed mode with a 10% duty cycle by computer-controlled pulse generator 132 (Hewlett Packard Instruments). Light from LED 110 was introduced into filter block 130 (Model I3, Leica Microsystems, Inc., Deerfield, Ill.), comprising excitation filter 112 (model BP, 450-490 nm), dichroic mirror 114 (model RKP, reflection short pass at 510 nm), and emission filter 120 (model LP, 515 nm) and focused on an illumination region of sample 118 by objective lens 116. The illumination region was designed to accommodate a solution sample, a microfluidic chip, or other sample that might contain β-TUGlc to be enzymatically cleaved. A 10× objective was used for large detection zones (e.g., solution cuvettes, microwell arrays) and a 40× objective was used for small samples (e.g., 50 μm wide channels in microfluidic chips). Both objective lenses were obtained from Melles Griot, Irvine, Calif. […] Return fluorescence was passed through objective lens 116, reflected from dichroic mirror 114 through emission filter 120 and iris diaphragm 122, and detected with photomultiplier tube 124 (PMT Model H5783, Hamamatsu Corp., Bridgewater, N.J.) having an adjustable gain between 0 and 70,000 Amperes/Watt. PMT module 124 was powered by a 15 volt power supply (not shown). […]

[10] = 5 μM solution in 50 mM PBS at pH 10.0
[11] = 5 μM solution in phosphate buffered saline at pH 7.6

Compound: O=c1oc2cc(O)ccc2cc1-c1nc2ccccc2[nH]1 [3-(2-benzoimidazolyl) umbelliferyl anion]
λem (nm) [1]: 477 nm | λex (nm) [1]: 420 nm | pKa [2]: 7.01

Compound: O=c1oc2cc(O)ccc2cc1-c1nc2ccccc2s1 [3-(2-benzothiazolyl) umbelliferyl anion]
λem (nm) [1]: 488 nm | λex (nm) [1]: 447 nm | pKa [2]: 6.79

Compound: O=c1oc2cc(O[C@@H]3O[C@H](CO)[C@H](O)[C@H](O)[C@H]3O)ccc2cc1-c1cccs1 [β-TUGal, 3-(2-thienyl)-umbelliferyl-7-β-D-galactoside]
positive results (E. coli P18 cells; 0.56 cell concentration): 3 of the 10 concentrations showed positive results | fastest time to positive result (E. coli P18 cells; 56 cells per well, 62 μM indicator): 6.5 h | fluorescence at 502 nm on addition of β-galactosidase [5]: rapid increase in fluorescence

Further lines, with some results ahead:

λem (nm) [1]: 471 nm | λex (nm) [1]: 425 nm | pKa [2]: 6.56
Compound: O=c1oc2cc(O)ccc2cc1-c1nc2ccccc2o1 [3-(2-benzoxazolyl) umbelliferyl anion]

emission maximum [1, 10]: ~502 nm | excitation maximum [1, 10]: ~410 nm | λem (nm) [1]: 502 nm | λex (nm) [1]: 410 nm | pKa ([2]; umbelliferone hydrolysis product): 7.57±0.03
Compound: O=c1oc2cc(O)ccc2cc1-c1cccs1 [3-(2-thienyl) umbelliferyl anion, 3-(2-thienyl) umbelliferone]

time at which Vmax appears [4]: about 2 minutes
Compound: O=c1oc2cc(OC3OC(CO)C(O)C(O)C3O)ccc2cc1-c1cccs1 (stereo not drawn) [α-TUGlc]
fluorescence at 502 nm after substrate addition [3]: Fluorescence increased rapidly in the first 20 minutes

time to significant, detectable fluorescent signal (β-glucosidase [6]; 0.5 enzyme units, 123 μM substrate, 37° C., pH 7.6 PBS): less than 5 seconds | emission maximum [1, 11]: ~460 nm | excitation maximum [1, 11]: ~380 nm | time to strong fluorescent signal (β-glucosidase [8]): ten | fraction hydrolyzed during each autoclave cycle [9]: approximately 10%
Compound: O=c1oc2cc(O[C@@H]3O[C@H](CO)[C@@H](O)[C@H](O)[C@H]3O)ccc2cc1-c1cccs1 [β-TUGlc, 3-(2-thienyl)-umbelliferyl-7-β-D-glucoside]
fluorescent signal with steam-sterilized enzyme (β-glucosidase [6]; enzyme solutions steam-sterilized at 121° C. for 20 minutes): no time-dependent changes in the fluorescent signal | time until fluorescence changes were evident ([7]; 10^7 and 10^6 cells/mL, 2×10^−6 M substrate, 56° C., ex 450 nm, em 502 nm): less than 10 minutes | cleavage by steam-sterilized spore solutions ([7]; spores steam-sterilized 20 minutes at 121° C.): no enzymatic cleavage reaction | time to presumptive identification of B. subtilis after mixing (Bacillus subtilis spores; 10^8 spores/mL, 37° C., PMT gain 88 Amperes/Watt): less than five | fluorescent signal with steam-sterilized control (Bacillus subtilis spores; steam-sterilized at 121° C. for 20 minutes): no time-dependent changes in the fluorescent signal
